Measurements taken from ChEMBL document CHEMBL2440004, “The influence of saponins on cell membrane cholesterol” (Bioorg Med Chem, 2013).
The source made the active and inactive calls. The calls are words filed in the database; no cut-off is given here.

Tests used:
ECV-304 [1] = test: Reduction in [3H]cholesterol content in endosomal/lysosomal membrane of human ECV304 cells at 5 uM after 1 hr by liquid scintillation counting; format: functional, cell membranes
ECV-304 [2] = test: Membrane toxicity against human ECV304 cells after 2 hrs by LDH release assay; format: functional, cell-based; conditions: ECV-304, 2 h
ECV-304 [3] = test: Effect on [3H]cholesterol liberation from cell membrane of human ECV304 cells after 1 hr by liquid scintillation counting; format: functional, cell membranes
ECV-304 [4] = test: Cytotoxicity against human ECV304 cells after 72 hrs by MTT assay; format: functional, cell-based; conditions: ECV-304, 72 h
ECV-304 [5] = test: Reduction in [3H]cholesterol content in cytoplasm membrane of human ECV304 cells at 5 uM after 1 hr by liquid scintillation counting; format: functional, cell membranes
ECV-304 [6] = test: Reduction in [3H]cholesterol uptake in human ECV304 cells after 1 hr by liquid scintillation counting; format: functional, cell-based

Structure (SMILES) | Activity (ECV-304 [1]) | IC50 (ECV-304 [2]) | Activity (ECV-304 [3]) | IC50 (ECV-304 [4]) | Activity (ECV-304 [5]) | Activity (ECV-304 [6])
C[C@@H]1O[C@@H](O[C@H]2[C@@H](O)[C@H](O[C@H]3O[C@@H](C)[C@H](O[C@H]4OC[C@@H](O)[C@H](O[C@H]5OC[C@@H](O)[C@H](O)[C@H]5O)[C@H]4O)[C@@H](O)[C@H]3O)[C@H](OC(=O)[C@]34CCC(C)(C)C[C@H]3C3=CC[C@@H]5[C@@]6(C)CC[C@H](O[C@@H]7O[C@H](C(=O)O)[C@@H](O)[C@H](O[C@@H]8OC[C@H](O)[C@@H](O)[C@@H]8O)[C@H]7O[C@@H]7O[C@H](CO)[C@H](O)[C@H](O)[C@H]7O)[C@@](C)(C=O)[C@@H]6CC[C@@]5(C)[C@]3(C)CC4)O[C@H]2C)[C@@H](O)[C@H](O)[C@H]1O | inactive | 21 µM | Active | 9 µM | Active | Dose-dependent effect
CC1(C)[C@@H](O[C@H]2O[C@H](C(=O)O)[C@@H](O)[C@H](O)[C@H]2O[C@@H]2O[C@H](C(=O)O)[C@@H](O)[C@H](O)[C@H]2O)CC[C@]2(C)[C@H]3C(=O)C=C4[C@@H]5C[C@@](C)(C(=O)O)CC[C@]5(C)CC[C@@]4(C)[C@]3(C)CC[C@@H]12 [GLYCYRRHIZIN] |  | > 238 µM | inactive | > 119 µM |  | inactive
C[C@@H]1O[C@@H](O[C@H]2[C@H](O[C@H]3CC[C@@]4(C)[C@@H](CC[C@]5(C)[C@@H]4CC=C4[C@@H]6CC(C)(C)CC[C@]6(C(=O)O[C@@H]6O[C@H](CO[C@@H]7O[C@H](CO)[C@@H](O[C@@H]8O[C@@H](C)[C@H](O)[C@@H](O)[C@H]8O)[C@H](O)[C@H]7O)[C@@H](O)[C@H](O)[C@H]6O)CC[C@]45C)[C@]3(C)CO)OC[C@H](O)[C@@H]2O)[C@H](O)[C@H](O)[C@H]1O [KALOPANAXSAPONIN B] |  | > 164 µM | inactive | > 164 µM |  | inactive
C[C@@H]1O[C@@H](O[C@H]2[C@H](O[C@H]3CC[C@@]4(C)[C@@H](CC[C@]5(C)[C@@H]4CC=C4[C@@H]6CC(C)(C)CC[C@]6(C(=O)O)CC[C@]45C)[C@]3(C)CO)OC[C@H](O)[C@@H]2O)[C@H](O)[C@H](O)[C@H]1O |  |  | inactive |  |  | Dose-dependent effect
C[C@H]1O[C@@H](O[C@H]2[C@H](O)[C@@H](O[C@H]3CC[C@]4(C)[C@H]5CC=C6[C@@H]7CC(C)(C)CC[C@]7(C(=O)O[C@@H]7O[C@H](CO[C@@H]8OC[C@](O)(CO)[C@H]8O)[C@@H](O)[C@H](O)[C@H]7O)CC[C@@]6(C)[C@]5(C)CC[C@H]4C3(C)C)O[C@@H](C(=O)O)[C@@H]2O[C@@H]2OC[C@@H](O)[C@H](O)[C@H]2O)[C@@H](O)[C@@H](O)[C@@H]1O |  |  | inactive | > 100 µM |  | inactive
C[C@@H]1O[C@H](O[C@H]2[C@@H](OC(=O)[C@]34CCC(C)(C)C[C@H]3C3=CC[C@@H]5[C@@]6(C)CC[C@H](O[C@@H]7O[C@H](C(=O)O)[C@@H](O)[C@H](O[C@H]8OC[C@@H](O)[C@H](O)[C@H]8O)[C@H]7O[C@@H]7O[C@H](CO)[C@H](O)[C@H](O)[C@H]7O)[C@@](C)(C=O)[C@@H]6CC[C@@]5(C)[C@]3(C)C[C@H]4O)O[C@H](C)[C@H](O)[C@@H]2O)[C@H](O)[C@H](O[C@@H]2O[C@H](CO)[C@@H](O)[C@H](O)[C@H]2O)[C@H]1O[C@H]1OC[C@@H](O)[C@H](O)[C@H]1O |  |  | Active | 8 µM |  | Dose-dependent effect
CC[C@H](CC[C@@H](C)[C@H]1CC[C@H]2[C@@H]3CC=C4C[C@@H](O)CC[C@]4(C)[C@H]3CC[C@]12C)C(C)C |  |  | inactive |  |  | inactive
COC(=O)[C@@]1(C)CC[C@]2(C(=O)O[C@@H]3O[C@H](CO)[C@@H](O)[C@H](O)[C@H]3O)CC[C@]3(C)C(=CC[C@@H]4[C@@]5(C)CC[C@H](O[C@@H]6O[C@H](C(=O)O)[C@@H](O)[C@H](O)[C@H]6O)C(C)(C)[C@@H]5CC[C@]43C)[C@@H]2C1 |  |  | inactive | > 100 µM |  | inactive
C[C@H]1O[C@H](O[C@H]2[C@H](O[C@H]3CC[C@]4(C)[C@H]5CC=C6[C@@H]7CC(C)(C)CC[C@]7(CO)[C@H](O)C[C@@]6(C)[C@]5(C)CC[C@H]4C3(C)C)O[C@H](C(=O)O)[C@H](O[C@H]3O[C@@H](CO[C@@H]4O[C@H](CO)[C@@H](O)[C@H](O)[C@H]4O)[C@@H](O)[C@@H](O)[C@@H]3O)[C@@H]2O)[C@@H](O)[C@@H](O)[C@@H]1O |  | 58 µM | Active | 13 µM |  | Dose-dependent effect
